Test results: publication PMC6017357, “In Vitro Inhibitory Effects of Synthetic Cannabinoid EAM-2201 on Cytochrome P450 and UDP-Glucuronosyltransferase Enzyme Activities in Human Liver Microsomes” (Molecules : A Journal of Synthetic Chemistry and Natural …, 2018)

Molecular target: T1, UGT1A9 (Homo sapiens, UniProt O60656)
T1 construct: ultrapooled human liver microsomes (0.2 mg/mL), 5 mM UDPGA; from tissue; host or cells: ultrapooled human liver microsomes
T1 sequence (O60656 26-530): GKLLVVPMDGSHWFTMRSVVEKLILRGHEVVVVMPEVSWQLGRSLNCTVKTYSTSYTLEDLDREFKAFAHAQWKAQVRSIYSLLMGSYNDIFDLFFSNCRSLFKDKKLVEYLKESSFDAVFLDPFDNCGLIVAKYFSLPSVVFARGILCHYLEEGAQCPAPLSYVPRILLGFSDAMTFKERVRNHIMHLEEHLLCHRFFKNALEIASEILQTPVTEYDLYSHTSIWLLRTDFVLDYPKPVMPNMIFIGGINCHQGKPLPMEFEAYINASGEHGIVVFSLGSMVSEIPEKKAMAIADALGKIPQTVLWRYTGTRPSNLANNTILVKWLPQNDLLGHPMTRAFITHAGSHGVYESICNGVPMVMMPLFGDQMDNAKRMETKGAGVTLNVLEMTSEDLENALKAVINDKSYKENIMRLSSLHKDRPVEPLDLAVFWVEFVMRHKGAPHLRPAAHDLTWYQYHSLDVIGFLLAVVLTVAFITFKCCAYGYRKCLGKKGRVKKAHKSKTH
Experiment: UGT1A9-catalyzed mycophenolic acid glucuronidation in human liver microsomes
Assay type: in vitro ADME
Conditions: at 50 µM
Method: The inhibitory effects of EAM-2201 on UGT1A1, UGT1A3, UGT1A4, UGT1A6, UGT1A9 and UGT2B7 were evaluated using LC-MS/MS and the cocktail of UGT substrates as previously described. Each incubation mixture was prepared in a final volume of 100 µL as follows: ultrapooled human liver microsomes (0.2 mg/mL), 5 mM UDPGA, 10 mM magnesium chloride, alamethicin (25 µg/mL), 50 mM Tris buffer (pH 7.4), various concentrations of EAM-2201 in DMSO (final concentrations of 1–50 µM, 0.5% DMSO) and the UGT enzyme-specific substrates of two cocktail sets (set A: 0.5 µM SN-38, 2 µM chenodeoxycholic acid and 0.5 µM trifluoperazine; set B: 1 µM N-acetylserotonin, 0.2 µM mycophenolic acid and 1 µM naloxone, acetonitrile content, 0.5%). […] Supernatant from sets A and B (50 µL of each) was mixed and aliquots (5 µL) were analyzed by LC-MS/MS. […]
The metabolites formed from the six UGT cocktail substrates were simultaneously measured using LC-MS/MS [41]. […] Each metabolite was quantified via SRM in the negative ion mode: chenodeoxycholic acid 24-acyl-β-glucuronide, 567.2 > 391.0; mycophenolic acid glucuronide, 495.2 > 318.9; and propofol glucuronide (IS), 353.3 > 177.1; and in the positive ion mode: SN-38 glucuronide, 569.0 > 393.0; trifluoperazine glucuronide, 584.2 > 408.1; N-acetylserotonin-β-D-glucuronide, 395.2 > 219.0; naloxone 3-β-D-glucuronide, 504.0 > 310.0; and meloxicam (IS), 352.0 > 115.1. […]

CCc1ccc(C(=O)c2cn(CCCCCF)c3ccccc23)c2ccccc12 [EAM-2201, (4-ethyl-1-naphthalenyl)[1-(5-fluoropentyl)-1H-indol-3-yl]-methanone]
inhibition of UGT1A9-catalyzed mycophenolic acid glucuronidation: negligibly inhibited
